Data published in publication PMC3826149, “Red Algal Bromophenols as Glucose 6-Phosphate Dehydrogenase Inhibitors” (Marine Drugs, 2013).
Values belong to the compound of their own block, whether it stands above or below them.

Tests used:
[1] = biological target: T1, glucose 6-phosphate dehydrogenase (G6PD) (Leuconostoc mesenteroides, UniProt P11411); assay: G6PD enzyme inhibition assay (colorimetric, WST-1/1-methoxy PMS); assay type: biochemical; settings: for IC50: Mean ± SD (n = 3), glucose 6-phosphate 3.0 mM, NADP+ 0.3 mM, read-out: IC50 on glucose 6-phosphate dehydrogenase (G6PD) reaction; for G6PD inhibition in words: qualitative statement
T1 construct: purchased Sigma-Aldrich (St. Louis, MO, USA)
T1 sequence (P11411 1-486): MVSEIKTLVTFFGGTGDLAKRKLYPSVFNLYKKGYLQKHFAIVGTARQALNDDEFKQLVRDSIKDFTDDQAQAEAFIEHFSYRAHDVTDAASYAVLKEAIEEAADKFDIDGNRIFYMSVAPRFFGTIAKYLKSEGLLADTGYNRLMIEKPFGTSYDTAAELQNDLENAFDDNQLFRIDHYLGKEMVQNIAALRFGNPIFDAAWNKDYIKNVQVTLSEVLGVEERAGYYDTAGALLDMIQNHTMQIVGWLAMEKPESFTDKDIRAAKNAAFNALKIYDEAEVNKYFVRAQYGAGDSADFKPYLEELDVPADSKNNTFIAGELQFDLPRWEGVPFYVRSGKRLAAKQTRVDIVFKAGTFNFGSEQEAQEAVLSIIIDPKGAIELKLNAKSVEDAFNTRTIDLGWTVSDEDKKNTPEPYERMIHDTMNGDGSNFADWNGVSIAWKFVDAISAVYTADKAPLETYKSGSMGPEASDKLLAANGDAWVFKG
From the text: G6PD (EC 1.1.1.49) from Leuconostoc mesenteroides was purchased from Sigma-Aldrich (St. Louis, MO, USA). WST-1 and 1-methoxy-5-methylphenazinium methylsulfate (1-methoxy PMS) were purchased from Dojindo Laboratories (Mashiki, Kumamoto, Japan) and oxidized nicotinamide adenine dinucleotide phosphate (NADP^+) from Oriental Yeast Industries (Tokyo, Japan). Glucose 6-phosphate was purchased from Wako Pure Chemicals (Tokyo, Japan). Epigallocatechin gallate (EGCG) was purchased from Cayman Chemical Company (Ann Arbor, MI, USA). Thin layer chromatography (TLC) was carried out using a glass plate precoated with silica gel 60 F254 and RP-18 (Merck, Darmstadt, Germany), and spots were detected under UV light and visualized by spraying 50% sulfuric acid and potassium ferricyanide-ferric chloride reagents. NMR spectra were recorded in acetone-d6 on a Bruker AMX-500 (Karlsruhe, Germany) spectrometer at 500 MHz for proton and 125 MHz for carbon chemical shifts. Field desorption-MS spectra were recorded on a JEOL JMS-T100GCV spectrometer (Tokyo, Japan).
Enzyme assay was carried out by colorimetric method as described in literature with slight modification. The reaction mixture was prepared by adding 135 mM Tris-HCl buffer (pH 7.8, 675 μL), 30 mM glucose 6-phosphate (100 μL), 3 mM NADP^+ (100 μL), 20 mM MgCl2 (100 μL) and test materials in MeOH (15 μL). Reaction was initiated by adding 0.035 U/mL G6PD solution (10 μL) to the reaction mixture. Each reaction was carried out at 25 °C for 15 min and terminated by adding 1 mL of saturated aqueous NaCl solution. For determination of produced NADPH, 0.05 mM WST-1 (400 μL) and 0.025 mM 1-methoxy PMS (400 μL) were mixed to the reaction mixture (400 μL) and the absorbance was measured at 438 nm. EGCG was used as a positive control.

[2] = biological target: purified α-glucosidase; design: method as in PMID 20629879; settings: previous study; cited from earlier work
[3] = read-out: Inhibition (%) of G6PD

SMILES: O=C(O[C@@H]1Cc2c(O)cc(O)cc2O[C@@H]1c1cc(O)c(O)c(O)c1)c1cc(O)c(O)c(O)c1 [Epigallocatechin gallate, reference compound]
IC50 [1]: 7.7 ± 0.14 µM

SMILES: COCc1cc(O)c(O)c(Br)c1 [Compound 3]
IC50 [1]: > 340 µM | G6PD inhibition in words [1]: low inhibition | inhibition at 340 µM [1, 3]: 35.7%

SMILES: OCc1cc(O)c(O)c(Br)c1 [Compound 2]
IC50 [1]: > 370 µM | G6PD inhibition in words [1]: low inhibition | inhibition at 370 µM [1, 3]: 37.6%

IC50 [1]: 76.6 ± 1.1 µM
SMILES: O=Cc1cc(Br)c(O)c(Br)c1 [Compound 1]

IC50 [1]: 4.01 ± 0.3 µM
SMILES: OCc1cc(O)c(O)c(Br)c1Cc1cc(O)c(O)c(Br)c1Br [Compound 4]

SMILES: Oc1cc(COCc2cc(O)c(O)c(Br)c2Br)c(Br)c(Br)c1O [Compound 5]
IC50 [2]: 1000 to 1200 µM | fold lower IC50 value than epigallocatechin gallate (EGCG) ([1]; G6PD IC50 relative to known inhibitor EGCG): 9.1 fold | IC50 [1]: 0.85 ± 0.1 µM
